Measured values reported in US12084430B2, “Tricyclic urea compounds as JAK2 V617F inhibitors” (Incyte Corporation, priority 2022, dated 2024).

Tests used:
FLT3 = FLT3 enzymatic assay; format: biochemical
Experimental: Example C. FLT3 Enzymatic Assay
The kinase assays were carried out at room temperature in assay buffer (HEPES 50 mM, pH 7.0, NaN3 0.02%, BSA 0.01%, Orthovanadate 0.1 mM, DTT 1 mM, MgCl2 10 mM) in a final volume of 10 μL. Testing compounds were prepared by serial dilution in DMSO and transferred to the plate wells by ECHO liquid handler (Labcyte) with 0.5% DMSO in the final assay. […]. Reactions were initiated by the addition of 5 μL ATP in assay buffer. The final 10 μL kinase reaction consists of 0.011 nM FLT3, 1 mM ATP, 500 nM TK Substrate-biotin and SEB reagent 62.5 nM in assay buffer. […] The plates were then sealed and centrifuged at 1800 rpm for 2 minutes. After 60 minutes incubation at room temperature, the product activity was determined by measuring the fluorescence at 620 nm and 665 nm on Pherastar microplate reader (BMG Labtech). A ratio is calculated (665/620 nm) for each well. Wells with DMSO only were served as the positive controls and wells containing no ATP were used as negative controls. IC50 determination was performed by fitting the curve of percent control activity versus the log of the compound concentration using the GraphPad Prism 7.0 software.

[1] = In vitro intrinsic clearance; format: in vitro ADME; details: human liver microsomes, 1 μM
Experimental: Example G. In Vitro Intrinsic Clearance Protocol
For in vitro metabolic stability experiments, test compounds were incubated with human liver microsomes at 37° C. The incubation mixture contained test compounds (1 μM), NADPH (2 mM), and human liver microsomes (0.5 mg protein/mL) in 100 mM phosphate buffer (pH 7.4). The mixture was pre-incubated for 2 min at 37° C. before the addition of NADPH. Reactions were commenced upon the addition of NADPH and quenched with ice-cold methanol at 0, 10, 20, and 30 min. Terminated incubation mixtures were analyzed using LC-MS/MS system. The analytical system consisted of a Shimadzu LC-30AD binary pump system and SIL-30AC autosampler (Shimadzu Scientific Instruments, Columbia, MD) coupled with a Sciex Triple Quad 6500+ mass spectrometer from Applied Biosystems (Foster City, CA). […] Mobile phase A consisted of 0.1% formic acid in water, and mobile phase B consisted of 0.1% formic acid in acetonitrile. The total LC-MS/MS runtime was 2.75 minutes with a flow rate of 0.75 mL/min. Peak area integrations and peak area ratio calculations were performed using Analyst software (version 1.6.3) from Applied Biosystems.
The in vitro intrinsic clearance, CLint, in vitro, was calculated from the t1/2 of test compound disappearance as CLint, in vitro=(0.693/t1/2)×(1/Cprotein), where Cprotein is the protein concentration during the incubation, and t1/2 was determined by the slope (k) of the log-linear regression analysis of the concentration versus time profiles; thus, t1/2=ln 2/k. The CLint, in vitro values were scaled to the in vivo values for human by using physiologically based scaling factors, hepatic microsomal protein concentrations (45 mg protein/g liver), and liver weights (21 g/kg body weight). The equation CLint=CLint, in vitro×(mg protein/g liver weight)×(g liver weight/kg body weight) was used. The in vivo hepatic clearance (CLH) was then calculated by using CLint and hepatic blood flow, Q (20 mL·min^−1·kg^−1 in humans) in the well-stirred liver model disregarding all binding from CLH=(Q×CLint)/(Q+CLint). The hepatic extraction ratio was calculated as CLH divided by Q.

[2] = system: pSTAT5 signaling in SET-2 cells in whole blood; assay: pSTAT5 SET-2 whole blood MSD assay; format: cell-based; details: Homo sapiens, pSTAT5, 2 hour, read-out: SET2 WB IC50
Experimental: Example F. pSTAT5 SET-2 Whole Blood MSD Assay
SET-2 cells shipped from ABS, RPMI1640 medium, Fetal Bovine Serum from Gibco, Phospho-STAT5a,b Whole Cell Lysate Kit from Mesoscale, Retronectin (Recombinant Human Fibronectin Fragment) from TaKaRa, 96 well cell culture plate flat bottom from Corning, lysis buffer from Cell Signaling Technology, and sterile PBS from Gibco. Whole Blood from by BioIVT.
SET-2 cells were cultured in RPMI media with 20% FBS at 37° C. humidified incubator supplied with 5% CO2. On the day of the assay, 40 uL per well of diluted retronectin working solution was added to sterile 96-well clear flat bottom tissue culture plates (1:200 dilution of retronectin in sterile PBS) and incubated at 37 C for 1 hour. After 1 hour, the retronectin working solution was aspirated and SET-2 cells were seeded at 100,000/well in RPMI+20% FBS. Cells were incubated overnight at 37° C. and 5% CO2. The next day, the medium was removed and 40 μL of diluted compounds in serum-free RPMI and whole blood was added to the cells for a 2 hour incubation at 37° C. and 5% CO2. The compound starting concentration is 20 μM and 2.5 fold serial diluted down to 0.21 nM. The whole blood and compound mixture was then aspirated off using the BlueCat plate washer and washed 1× with PBS. Cells were lysed by adding 40 μL of 3× complete lysis buffer and shaken at room temperature for 45-60 minutes (complete lysis buffer consists of Cell Signaling Technology lysis buffer diluted to 3× and supplemented with Mesoscale's protease inhibitor, phosphatase I inhibitor, and phosphatase II inhibitor). The pSTAT5 MSD plates were blocked by adding 150 μL of Blocker A solution per well to the MSD plates and incubated at room temperature with shaking at 400 rpm for one hour or longer. After blocking, plates were washed 3× with 300 μL/well of IX Tris Wash Buffer. After lysis, added 25 μL per well of lysed sample was added to MSD plate and incubated with shaking at 4° C. wrapped in foil overnight. The next day, plates were washed again and 25 μL/well of diluted 1× Detection Antibody Solution, wrapped in foil, and incubated at room temperature with shaking at 400 rpm for 1 hour. Plates were then washed again and lastly, 150 μL/well of 1× Read Buffer T was added to all wells. Plates were analyzed on MSD Discovery within 5 minutes. […] Data analysis was performed in GraphPad Prism using a 4-parameter fit and data was reported as Average±SD.

| SMILES | Selectivity FLT3/JH2 V617F (FLT3) | h-IntCL [1] | IC50 [2] [nM] |
| --- | --- | --- | --- |
| [2H]C([2H])([2H])n1cc(-c2[nH]c3ncc4c(c3c2-c2ccc(C(C)(C)O)cc2)n([C@@H]2CC[C@@H](NC(=O)OC)C2)c(=O)n4C([2H])([2H])[2H])c(F)n1 [Example 10, Methyl ((1R,3R)-3-(7-(3-fluoro-1-(methyl-d3)-1H-pyrazol-4-yl)-8-(4-(2-hydroxypropan-2-yl)phenyl)-3-(methyl-d3)-2-oxo-3,6-dihydroimidazo[4,5-d]pyrrolo[2,3-b]pyridin-1(2H)-yl)cyclopentyl)carbamate] | **** (selectivity of >1750-fold to ≤5000-fold) | ‡ ‡ (h-IntCL of ≥0.7 L/h/kg to ≤1 L/h/kg) | ≤ 2500 |
| [2H]C([2H])([2H])n1cc(-c2[nH]c3ncc4c(c3c2-c2ccc3c(c2)COC3(C)C)n([C@@H]2CC[C@@H](NC(=O)OC)C2)c(=O)n4C)c(F)n1 [Example 11, Methyl ((1R,3R)-3-(8-(1,1-dimethyl-1,3-dihydroisobenzofuran-5-yl)-7-(3-fluoro-1-(methyl-d3)-1H-pyrazol-4-yl)-3-methyl-2-oxo-3,6-dihydroimidazo[4,5-d]pyrrolo[2,3-b]pyridin-1(2H)-yl)cyclopentyl)carbamate] | ****** (selectivity of >12500-fold) | ‡ ‡ (h-IntCL of ≥0.7 L/h/kg to ≤1 L/h/kg) | ≤ 2500 |
| [2H]C([2H])([2H])n1c(=O)n([C@@H]2CC[C@@H](NC(=O)OC)C2)c2c3c(-c4ccc5c(c4)COC5(C)C)c(-c4cn(CC(F)F)nc4F)[nH]c3ncc21 [Example 12, Methyl ((1R,3R)-3-(7-(1-(2,2-difluoroethyl)-3-fluoro-1H-pyrazol-4-yl)-8-(1,1-dimethyl-1,3-dihydroisobenzofuran-5-yl)-3-(methyl-d3)-2-oxo-3,6-dihydroimidazo[4,5-d]pyrrolo[2,3-b]pyridin-1(2H)-yl)cyclopentyl)carbamate] | ****** (selectivity of >12500-fold) | ‡ ‡ (h-IntCL of ≥0.7 L/h/kg to ≤1 L/h/kg) | ≤ 2500 |
| [2H]C([2H])([2H])n1cc(-c2[nH]c3ncc4c(c3c2-c2ccc3c(cnn3C(C)C)c2)n([C@@H]2CC[C@@H](NC(=O)OC)C2)c(=O)n4C([2H])([2H])[2H])c(F)n1 [Example 13, Methyl ((1R,3R)-3-(7-(3-fluoro-1-(methyl-d3)-1H-pyrazol-4-yl)-8-(1-isopropyl-1H-indazol-5-yl)-3-(methyl-d3)-2-oxo-3,6-dihydroimidazo[4,5-d]pyrrolo[2,3-b]pyridin-1(2H)-yl)cyclopentyl)carbamate] | ****** (selectivity of >12500-fold) | ‡ ‡ (h-IntCL of ≥0.7 L/h/kg to ≤1 L/h/kg) | ≤ 2500 |
| [2H]C([2H])([2H])n1cc(-c2[nH]c3ncc4c(c3c2-c2ccc3c(cnn3CC(F)F)c2)n([C@@H]2CC[C@@H](NC(=O)OC)C2)c(=O)n4C([2H])([2H])[2H])c(F)n1 [Example 14, Methyl ((1R,3R)-3-(8-(1-(2,2-difluoroethyl)-1H-indazol-5-yl)-7-(3-fluoro-1-(methyl-d3)-1H-pyrazol-4-yl)-3-(methyl-d3)-2-oxo-3,6-dihydroimidazo[4,5-d]pyrrolo[2,3-b]pyridin-1(2H)-yl)cyclopentyl)carbamate] | ****** (selectivity of >12500-fold) | ‡ ‡ (h-IntCL of ≥0.7 L/h/kg to ≤1 L/h/kg) | ≤ 2500 |
| [2H]C([2H])([2H])n1ncc2cc(-c3c(-c4cn(C([2H])([2H])C([2H])([2H])[2H])nc4F)[nH]c4ncc5c(c34)n([C@@H]3CC[C@@H](NC(=O)OC)C3)c(=O)n5C([2H])([2H])[2H])ccc21 [Example 15, Methyl ((1R,3R)-3-(7-(1-(ethyl-d5)-3-fluoro-1H-pyrazol-4-yl)-3-(methyl-d3)-8-(1-(methyl-d3)-1H-indazol-5-yl)-2-oxo-3,6-dihydroimidazo[4,5-d]pyrrolo[2,3-b]pyridin-1(2H)-yl)cyclopentyl)carbamate] | ***** (selectivity of >5000-fold to ≤12500-fold) | ‡ ‡ (h-IntCL of ≥0.7 L/h/kg to ≤1 L/h/kg) | ≤ 2500 |
| [2H]C([2H])([2H])n1cc(-c2[nH]c3ncc4c(c3c2-c2ccc3c(cnn3C(C)C)c2)n([C@@H]2CC[C@@H](NC(=O)OC)C2)c(=O)n4C)c(F)n1 [Example 16, Methyl ((1R,3R)-3-(7-(3-fluoro-1-(methyl-d3)-1H-pyrazol-4-yl)-8-(1-isopropyl-1H-indazol-5-yl)-3-methyl-2-oxo-3,6-dihydroimidazo[4,5-d]pyrrolo[2,3-b]pyridin-1(2H)-yl)cyclopentyl)carbamate] | ***** (selectivity of >5000-fold to ≤12500-fold) | ‡ ‡ (h-IntCL of ≥0.7 L/h/kg to ≤1 L/h/kg) | ≤ 2500 |
| [2H]C([2H])([2H])n1cc(-c2[nH]c3ncc4c(c3c2-c2cc(F)c3c(cnn3C([2H])([2H])[2H])c2)n([C@@H]2CC[C@@H](NC(=O)OC)C2)c(=O)n4C([2H])([2H])[2H])c(F)n1 [Example 17, Methyl ((1R,3R)-3-(8-(7-fluoro-1-(methyl-d3)-1H-indazol-5-yl)-7-(3-fluoro-1-(methyl-d3)-1H-pyrazol-4-yl)-3-(methyl-d3)-2-oxo-3,6-dihydroimidazo[4,5-d]pyrrolo[2,3-b]pyridin-1(2H)-yl)cyclopentyl)carbamate] | ****** (selectivity of >12500-fold) | ‡ ‡ (h-IntCL of ≥0.7 L/h/kg to ≤1 L/h/kg) | ≤ 2500 |
| [2H]C([2H])([2H])n1cc(-c2[nH]c3ncc4c(c3c2-c2ccc3c(cnn3CC(F)F)c2)n([C@@H]2CC[C@@H](NC(=O)OC)C2)c(=O)n4C)c(F)n1 [Example 18, Methyl ((1R,3R)-3-(8-(1-(2,2-difluoroethyl)-1H-indazol-5-yl)-7-(3-fluoro-1-(methyl-d3)-1H-pyrazol-4-yl)-3-methyl-2-oxo-3,6-dihydroimidazo[4,5-d]pyrrolo[2,3-b]pyridin-1(2H)-yl)cyclopentyl)carbamate] | ****** (selectivity of >12500-fold) | ‡ ‡ (h-IntCL of ≥0.7 L/h/kg to ≤1 L/h/kg) | ≤ 2500 |
